Laboratory results reported in publication PMC11945475, “Nasal Administration of a Nanoemulsion Based on Methyl Ferulate and Eugenol Encapsulated in Chitosan Oleate: Uptake Studies in the Central Nervous System” (Pharmaceutics, 2025).
Like-named read-outs stand apart in the source and are kept apart here.

How the values were obtained:
[1] = for remaining percentage (residual % content) in NE: 672 h; for content in CS-OA NE used for cellular and in vivo studies / loading in NE: CS-OA NE; for final concentration in NE: loaded in CS-OA NE, immediately after preparation, four batches
Protocol: The eugenol and Fer-Me quantification was performed using an HPLC apparatus, coupled with a UV-Vis Variable Wavelength Detector equipped with a deuterium lamp with a wavelength accuracy of ±1 nm (Agilent 1100 Series, model G1314A, Santa Clara, CA, USA). The mobile phase was constituted by a mixture of CH3CN and H2O 38:62 (v/v) acidified with formic acid at pH 3.25, the flow rate was maintained at 1 mL/min, and separations were performed at room temperature on a 150 mm × 4.6 mm, […]. SUPELCOSIL^TM LC-18 endcapped silica column (Supelco®, Merck, Milan, Italy). Eugenol was detected at a wavelength of 210 nm, while Fer-Me was detected at 320 nm. The injection volume was 20 µL for each sample. […] An ANOVA was performed to assess the feasibility of averaging the peak area values across three calibration curves for both the analytes. […] Both standard curve and NE samples were injected after dilution in a mixture of mobile phase and acetate buffer (5 mM); every analysis on each sample was done in triplicate.
The yield of the process was verified by quantifying by HPLC analysis Fer-Me and eugenol loaded into the CS-OA NEs immediately after preparation and after 1, 2, and 4 weeks of storage at 4 °C. […] Fer-Me and eugenol were quantified by the HPLC method into the external aqueous phase, passing through the membrane as permeate.

[2] = Encapsulation efficiency (ultrafiltration method, HPLC); format: physicochemical; conditions: CS-OA NE, ultrafiltration 50K MWCO
Protocol: EE% was calculated by Equation (2):(2) EE%= total drug amount in CS-OA NE - drug amount in external phase/total drug amount in CS-OA NE × 100

[3] = In vitro drug release from CS-OA NE (dialysis tubing); format: physicochemical; conditions: PBS pH 6.2, 32 °C
Protocol: The membrane was immersed in 50 mL of PBS (pH 6.2) at 32 ± 2 °C. The release medium was kept under constant magnetic stirring. Aliquots (1 mL) were withdrawn at predetermined intervals ranging from 15 min to 4 h and replaced with an equal volume of fresh PBS. The Fer-Me and eugenol released were quantified using the HPLC method.

in vivo = conditions: rat; for AUC / Cmax / Tmax: nasal CS-OA NE, Fer-Me 0.4 mg/kg and eugenol 0.8 mg/kg
Protocol: Fer-Me and eugenol were nasally co-administered as loaded in CS-OA NE to evaluate their concentration–time profiles in male Sprague-Dawley rats’ (200–250 g body weight; Charles River laboratories, Calco, Italy) bloodstream and CSF. The results were compared with those obtained by the rat intravenous administrations of Fer-Me (10 mg/kg; present study), and 20 mg/kg of eugenol. The sample size (4 rats/group) has been chosen based on our previous studies. The experimental procedures were approved by the Italian Ministry of Health and were performed in accordance with the European Communities Council Directive of September 2010 (2010/63/EU). According to the ARRIVE guidelines, all possible efforts were made to minimize animal pain and discomfort and to reduce the number of experimental subjects.
Fer-Me and eugenol were nasally co-administered to rats at the doses of 0.4 mg/kg (about 0.1 mg/rat) and 0.8 mg/kg (about 0.2 mg/rat), respectively, as encapsulated in CS-OA NE (Fer-Me content about 1 mg/mL; eugenol content about 2 mg/mL). A group of four rats anesthetized and laid on their backs (weighing approximately 250 g) received CS-OA NE after being fasted for 12 h. In particular, each rat received 50 μL of CS-OA NE formulation in each nostril. The nasal administration was carried out using a semiautomatic pipette connected to a short polyethylene tubing, which was inserted about 0.6 to 0.7 cm into each nostril. Following the administration, blood samples (100 μL) were collected at predetermined time points, along with CSF samples (30 μL). The blood samples (n = 4 for timepoint) were immediately mixed with 200 μL of ice-cold CH3CN and then 100 μL of internal standard (100 μM BNZ in CH3CN) was added. These samples were centrifuged at 12,500× g for 5 min. About 300 μL of the supernatant was then withdrawn and centrifuged again. Finally, 10 μL of the resultant sample was analyzed using HPLC for the quantification of Fer-Me and eugenol.
The HPLC apparatus was the same used for the uptake experiments with RPMI 2650 cells (Section 2.3.3). […] Calibration curves of peak areas versus concentration in the range 0.5 to 10 μM for Fer-Me (0.10 to 2.08 μg/mL), and eugenol (0.08 to 1.64 μg/mL), obtained dissolving the compounds in simulated CSF, were linear (n = 8, r ≥ 0.996, p < 0.0001). […] Therefore, the concentrations of these compounds determined in whole blood were referred to as the peak area ratio with respect to the internal standard BNZ. Eight different concentrations in rat whole blood at 4 °C, ranging from 0.5 to 50 μM for Fer-Me (0.10 to 10.41 μg/mL) and eugenol (0.08 to 8.21 μg/mL) were used to generate calibration curves in this biological system, which were linear (n = 8, r ≥ 0.990, p < 0.001).
Fer-Me in vivo half-life (t1/2) in the rats’ bloodstream was determined using nonlinear regression (exponential decay) of concentration values quantified at appropriate time intervals after infusion, further validated by applying linear regression to the semi-logarithmic plot. The area under the concentration–time curves (AUC, μg∙mL^−1∙min) in rat bloodstreams or CSF, following Fer-Me intravenous administration or CA-OA NE nasal administration, were calculated using the trapezoidal method.
Following the nasal administration of CS-OA NE, the absolute bioavailability (F) values of Fer-Me and eugenol were calculated as the ratio of the nasal AUC to the intravenous AUC values measured in the bloodstream, normalized to the respective doses, according to Equation (3):(3) F=AUCnasal/AUCIV·doseIV/dosenasal GraphPad Prism version 7.0 (GraphPad Software, San Diego, CA, USA) was used for all calculations.

[4] = cited from earlier work
several cell lines = conditions: cited from earlier work

COC(=O)/C=C/c1ccc(O)c(OC)c1 [Fer-Me, methyl ferulate]
remaining percentage (residual % content) in NE [1]: about 81%
content in CS-OA NE used for cellular and in vivo studies [1]: about 5 mM
loading in NE [1]: about 1 mg/mL
final concentration in NE [1]: 123.0 ± 0.2 µg per 100 µL of NE
EE% (encapsulation efficiency) [2]: 90.2%
in vitro release from CS-OA NE ([3]; 30 min): 24.9%
in vitro release from CS-OA NE ([3]; 240 min): 96.9%
CSF bioavailability (AUC) after nasal CS-OA NE relative to intravenous administration (in vivo): about 30 times
absolute bioavailability F (bloodstream) (in vivo): 56%
time at which CSF concentration decreased to zero (permanence in the CSF) (in vivo): 120 min
time within which plasma concentration decreased to zero (in vivo): ≤ 90 min
Tmax in CSF (in vivo; inhaled or intranasal): 20 min
Tmax in the bloodstream (in vivo; inhaled or intranasal): 40 min

C=CCc1ccc(O)c(OC)c1 [eugenol]
remaining percentage (residual % content) in NE [1]: about 71%
content in CS-OA NE used for cellular and in vivo studies [1]: ~12 mM
loading in NE [1]: ~2 mg/mL
final concentration in NE [1]: 260.0 ± 0.5 µg per 100 µL of NE
EE% (encapsulation efficiency) [2]: 87.9%
in vitro release from CS-OA NE ([3]; 30 min): 25.2%
in vitro release from CS-OA NE ([3]; 240 min): 97.5%
bioavailability (in vivo; male, Sprague-Dawley, 0.8 mg/kg, nasal CS-OA NE vs intravenous, dose-normalized, read-out: absolute bioavailability F (bloodstream)): 95%
time at which CSF concentration decreased to zero (permanence in the CSF) (in vivo; male, Sprague-Dawley): 120 min
time within which plasma concentration decreased to zero (in vivo; male, Sprague-Dawley): ≤ 90 min
AUC (in vivo; male, Sprague-Dawley, inhaled or intranasal, 0.8 mg/kg, read-out: AUC in CSF (converted)): 1060 ng·h/mL
AUC (in vivo; male, Sprague-Dawley, inhaled or intranasal, 0.8 mg/kg, read-out: AUC in the bloodstream (converted)): 111 ng·h/mL
Cmax (in vivo; male, Sprague-Dawley, inhaled or intranasal, 0.8 mg/kg, read-out: Cmax in CSF): 1050 ± 80 ng/mL
Cmax (in vivo; male, Sprague-Dawley, inhaled or intranasal, 0.8 mg/kg, read-out: Cmax in the bloodstream): 150 ± 10 ng/mL
Tmax (in vivo; male, Sprague-Dawley, inhaled or intranasal, 0.8 mg/kg, read-out: Tmax in CSF (converted)): 20 min
Tmax (in vivo; male, Sprague-Dawley, inhaled or intranasal, 0.8 mg/kg, read-out: Tmax in the bloodstream (converted)): 40 min
permanence in the rat CSF ([4]; in vivo): 50 min
AUC in CSF ([4]; rat, eugenol 20 mg/kg i.v.): 56.1 ± 4.2 µg·min/mL
Tmax in CSF ([4]; rat, eugenol 20 mg/kg i.v.): 10 min
t1/2 in the bloodstream ([4]; rat, in vivo, iv, 20 mg/kg): about 20 min
concentration known to induce cytotoxicity (several cell lines): 5000 µM
